Measured values reported in US6720480B2, “Maize proteinase inhibitor-like polynucleotides and defense-activated promoter, transformed plants, and methods of use” (Pioneer Hi-Bred International, Inc., priority 2000, dated 2004).
Where “and” joins values, the source holds several entries; their conditions need not be identical. Equal values may be shown once. One block for each compound: values may come before it.

Legend:
[1] = tested on: zmBBI1::GUS (proteinase inhibitor-like promoter); assay: Co-bombardment of maize immature embryos with zmBBI1::GUS, GUS fluorometric assay after chemical treatment; assay type: cell-based; details: for normalized promoter activity (GUS/Luci), Table 2b: Lucif adj for SA (/0.38); for normalized promoter activity (GUS/Luci), Table 2a: luciferase of sample with no chemicals; for GUS/Luci: Lucif adj for SA and JA (Luci for none); for GUS/Luci / GUS pmol MU/min/ml extract (ave) / GUS pmol MU/min/ml extract (ave), less backg 45.6: Rep 1 and 2; for GUS pmol MU/min/ml extract (ave) / GUS pmol MU/min/ml extract (ave), less backg 45.6: SA 1 mM, JA 0.1 mM; for GUS pmol MU/min/ml extract (ave): 20 h; for GUS pmol MU/min/ml extract (ave), less backg 45.6: second GUS column without own head
Procedure: The activity of the promoter was also studied in the presence of the putative defense activator, zmNPR1. Specifically, maize immature embryos (IE) were co-bombarded with the zmBBI1::GUS construct along with Act::luciferease as an internal standard and either a carrier DNA or an putative defense activators, zmNPR1 (U.S. patent application Ser. No. 09/551,778, filed Apr. 18, 2000, herein incorporated by reference). Particle preparation and DNA coating were carried out as described by Zhang et al.((2000) Plant Cell Reports 19:241-250) except for use of tungsten (1.0 μm) particles and different amounts of DNA: 50 μl zmBBI1::GUS at 0.02 μg/μl, Act::luciferase at 0.1 μg/μl, and 5 μl of the carrier or activator DNA at 1.0 μg/μl. The amount of DNA delivered for each bombardment were 0.33, 0.17, and 1.67 μg for zmBBI1::GUS, Act::luciferase, and the carrier or activator, respectively. The DNA concentration for zmBBI1::GUS was chosen in previous experiments for low background expression. A total of 45 IEs were used for each bombardment. IEs were placed on the osmotic medium (Vain et al. (1993) Plant Cell Reports 12:84-88) for 4 h before bombardment. The distance from the stopping screen to the target was 10 cm and bombardment was done at 650 psi with a PDS 1000/He device (Bio-Rad Laboratories).
After the bombardment the IEs were cultured on the same osmotic medium for 20-24 hr. Subsequently, the 45 IEs were randomly divided into three groups, 15 IEs for each. They were, then, transferred to three new petri dishes (60×25 mm) for chemical treatments. A piece of filter paper had been placed in each petri dish and wetted with 1.25 ml of 560Y liquid medium containing no chemical, 1 mM SA and 0.1 mM JA, respectively. The IEs were cultured again for another 20 h.
Three IEs from each group were then histochemically stained in X-Gluc staining solution (McCabe et al. (1988) Bio/Technology 6:923-926) for overnight at 37° C. The rest of the IEs were subjected to GUS fluorometric and luciferase assays. Fluorometric measurements of GUS activity were performed by using 50 μl protein extract prepared from the 12 IEs of each treatment and quantified in Fluoroskan Ascent FL (Labsystem) for two time points, 10 and 30 min. Luciferase activity was quantified in a Monolight 2010 (Analytical Luminescence Lab) by mixing 20 μl of protein extract with 100 μl of reaction buffer (Dual-Luciferase Reporter Assay System, Promega) and taking the measurements after 10 s. […]

[2] = tested on: nucleotide sequences operably linked to the proteinase inhibitor-like promoter; details: HC-toxin 1 μg/ml; Northern analysis, average of 3 repeated experiments

Structure (SMILES): CC/C=C\C[C@H]1C(=O)CC[C@@H]1CC(=O)O [JA, jasmonic acid]
normalized promoter activity (GUS/Luci), Table 2b ([1]; Rep 1, NPR1+): 3.39
normalized promoter activity (GUS/Luci), Table 2a ([1]; Rep 1, NPR1+): 3.19
normalized promoter activity (GUS/Luci), Table 2b ([1]; Rep 1, NPR1−): 8.73
normalized promoter activity (GUS/Luci), Table 2a ([1]; Rep 1, NPR1−): 6.5
normalized promoter activity (GUS/Luci), Table 2b ([1]; Rep 2, NPR1+): 3.54
normalized promoter activity (GUS/Luci), Table 2a ([1]; Rep 2, NPR1+): 3.19
normalized promoter activity (GUS/Luci), Table 2b ([1]; Rep 2, NPR1−): 11.42
normalized promoter activity (GUS/Luci), Table 2a ([1]; Rep 2, NPR1−): 11.74
GUS/Luci ([1]; zmNPR1 N): 11.74 and 6.50
GUS pmol MU/min/ml extract (ave) ([1]; zmNPR1 N): 62.22 pmol MU/min/ml extract and 58.61 pmol MU/min/ml extract
GUS pmol MU/min/ml extract (ave), less backg 45.6 ([1]; zmNPR1 N): 16.62 pmol MU/min/ml extract and 13.01 pmol MU/min/ml extract
GUS/Luci ([1]; zmNPR1 Y): 3.19
GUS pmol MU/min/ml extract (ave) ([1]; zmNPR1 Y): 55.25 pmol MU/min/ml extract and 54.57 pmol MU/min/ml extract
GUS pmol MU/min/ml extract (ave), less backg 45.6 ([1]; zmNPR1 Y): 9.65 pmol MU/min/ml extract and 8.97 pmol MU/min/ml extract

Structure (SMILES): C[C@@H]1NC(=O)[C@H]2CCCN2C(=O)[C@H](CCCCCC(=O)[C@@H]2CO2)NC(=O)[C@@H](C)NC1=O [HC-toxin]
increase in expression level of the reporter sequence linked to the promoter [2]: 2 fold

expression of sequence operably linked to the proteinase inhibitor-like promoter (in words) ([1]; maize immature embryos co-bombarded with zmBBI1::GUS): induces expression
Structure (SMILES): O=C(O)c1ccccc1O [SA, salicylic acid]
normalized promoter activity (GUS/Luci), Table 2b ([1]; Rep 1, NPR1+): 13.95
normalized promoter activity (GUS/Luci), Table 2a ([1]; Rep 1, NPR1+): 20.12
normalized promoter activity (GUS/Luci), Table 2b ([1]; Rep 1, NPR1−): 34.87
normalized promoter activity (GUS/Luci), Table 2a ([1]; Rep 1, NPR1−): 38.35
normalized promoter activity (GUS/Luci), Table 2b ([1]; Rep 2, NPR1+): 14.91
normalized promoter activity (GUS/Luci), Table 2a ([1]; Rep 2, NPR1+): 19.22
normalized promoter activity (GUS/Luci), Table 2b ([1]; Rep 2, NPR1−): 31.15
normalized promoter activity (GUS/Luci), Table 2a ([1]; Rep 2, NPR1−): 40.51
GUS/Luci ([1]; zmNPR1 N): 40.15 and 38.35
GUS pmol MU/min/ml extract (ave) ([1]; zmNPR1 N): 102.94 pmol MU/min/ml extract and 122.31 pmol MU/min/ml extract
GUS pmol MU/min/ml extract (ave), less backg 45.6 ([1]; zmNPR1 N): 57.34 pmol MU/min/ml extract and 76.71 pmol MU/min/ml extract
GUS/Luci ([1]; zmNPR1 Y): 20.12 and 19.22
GUS pmol MU/min/ml extract (ave) ([1]; zmNPR1 Y): 106.54 pmol MU/min/ml extract and 99.71 pmol MU/min/ml extract
GUS pmol MU/min/ml extract (ave), less backg 45.6 ([1]; zmNPR1 Y): 60.94 pmol MU/min/ml extract and 54.11 pmol MU/min/ml extract
